Data as given in PMC12467382, “Synthesis and Bioevaluation of Chalcones as Broad-Spectrum Antiviral Compounds Against Single-Stranded RNA Viruses” (Biomolecules, 2025).

Key:
[1] = test system: PIV5-GFP; experiment: RT-qPCR of PIV5 genes (F, HN, NP) in infected Hs27 cells; format: cell-based, parainfluenza virus 5; conditions: 10 µM before and after infection, MOI 10, normalized to actin
Protocol: Hs27 cells cultured in 6-well dishes were collected in TRIzol® (Invitrogen) followed by RNA extraction. To produce cDNA, 1 μg of total RNA was used with TaqMan® Reverse Transcription Reagents (Applied Biosystems, Foster City, CA, USA) as described in the manufacturer’s instructions. Quantitative real-time PCR was performed using Bio-Rad CFX Connect Real-Time (Bio-Rad, Hercules, CA, USA) and Fast SYBR® FAST Green Master Mix (Applied Biosystems, Foster City, CA, USA). Relative gene expression was determined using CFX Manager Software (Bio-Rad, version 2.3) and the following primers (Table 1).
To better understand how the chalcones were inhibiting virus growth, RT-qPCR was utilized to determine the effect of chalcone treatment on viral gene expression. Hs27 cells were treated with DMSO as a control or treated with 8o at a concentration of 10 µM. At 24 hpt, cells were mock infected or infected with PIV5-GFP at a high MOI and immediately replaced with media supplemented with 8o. Total RNA was collected at 2, 5, and 10 hpi and used in RT-qPCR assays to measure levels of the PIV5 genes: fusion (F) protein, hemagglutinin-neuraminidase (HN) protein, and nucleocapsid (NP) protein. Collection at various time points allows one to kinetically distinguish between the chalcone-mediated inhibition of early and late viral gene expression. Values were normalized to actin and were set relative to the DMSO-treated control of each corresponding time point.

[2] = test system: PIV5-GFP; experiment: Western blotting for PIV5 NP and P proteins in infected Hs27 cells; format: cell-based, parainfluenza virus 5; conditions: 10 µM before and after infection; high MOI; lysates at 24 hpi
From the text: Hs27 (human skin fibroblast) cells cultured in 6-well dishes were lysed using protein lysis buffer. Cell lysates were resolved on 12% sodium dodecyl sulfate-polyacrylamide gel electrophoresis (SDS-PAGE) gels and transferred to nitrocellulose membranes (Bio-Rad, Hercules, CA, USA). After normalizing samples via western blotting for β-actin (1:20,000 dilution, catalog number A5316, Sigma-Aldrich, St. Louis, MO, USA), samples were probed with rabbit polyclonal antibodies for the PIV5 NP (1:2000) and P proteins (1:2000). Blots were visualized using anti-mouse horseradish peroxidase (HRP)-conjugated antibodies (Sigma-Aldrich) and chemiluminescence (Thermo Fisher Scientific).
The above experiments utilized GFP expression and flow cytometry as an assay for observing the effects of chalcones on viral protein expression. To extend this analysis to bona fide viral proteins, cells were left untreated, DMSO-treated, or treated with the chalcone 8o at 10 μM for 24 h. Cells were then infected with PIV5-GFP at a high MOI and then cultured in control media or media supplemented with 8o.

CCOc1ccc(Br)cc1/C=C/C(=O)c1c(O)cccc1OCc1ccccc1 [Chalcone 8o]
Viral gene expression (F, HN, NP) vs DMSO-treated control at 2 hpi [1]: minimal differences | Reduction in viral gene expression at 5 hpi ([1]; relative to DMSO): ~ 5 fold | Reduction in viral gene expression at 10 hpi ([1]; relative to DMSO): greater than 100 fold | PIV5 NP and P viral protein levels [2]: very little viral protein
